Results on 8 molecules are retold here after patent US12661410B2, “Compounds for targeted degradation of RET” (C4 Therapeutics, Inc., priority 2020, dated 2026).

Positions count from the first letter of the chain named. Like-named read-outs stand apart in the source and are kept apart here.

In one assay the target is T1, RET(KD: 658-1114 G810R) (Homo sapiens, UniProt P07949, G810R).
T1 construct: 658-1114; expressed in transfected cells; host or cells: 293T.165 (293T cells, generated in-house)
T1 sequence (P07949 658-1114 G810R): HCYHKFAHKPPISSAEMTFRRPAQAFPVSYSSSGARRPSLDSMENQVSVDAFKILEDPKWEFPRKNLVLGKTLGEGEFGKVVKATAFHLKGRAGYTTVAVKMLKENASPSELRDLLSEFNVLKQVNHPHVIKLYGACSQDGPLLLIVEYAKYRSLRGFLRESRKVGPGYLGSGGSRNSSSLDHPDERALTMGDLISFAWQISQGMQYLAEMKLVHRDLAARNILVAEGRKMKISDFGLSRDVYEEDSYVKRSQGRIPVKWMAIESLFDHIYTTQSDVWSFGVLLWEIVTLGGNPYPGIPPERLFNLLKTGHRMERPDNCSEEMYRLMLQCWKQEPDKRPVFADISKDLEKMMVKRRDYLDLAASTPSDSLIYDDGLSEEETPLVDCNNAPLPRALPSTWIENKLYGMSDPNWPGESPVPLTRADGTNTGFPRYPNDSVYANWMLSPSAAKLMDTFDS
As to the kind of experiment: HiBiT-Degradation, RET G810R degradation assay (Nano-Glo HiBiT Lytic), 293T.165 cells. The format is cell-based. The settings on record: for Emax / DC50: 6.0 hours; for Emax: % remaining protein, read-out: 293T.165 RET(KD: 658-1114 G810R) 6.0 hours (Emax); for DC50: read-out: 293T.165 RET(KD: 658-1114 G810R) 6.0 hours (DC50). In outline:
(§1)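 HEK293T lines expressing HiBiT-tagged RET kinase domain, wild-type (293T.144) or G810R (293T.165), treated 6 h in duplicate, 11-point half-log series from 10 μM top. Lytic HiBiT luminescence read; DC50 and Emax (% protein remaining) from dose-response curves.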
A general note: With HiBiT, luminescence reflects the tagged protein that the partner subunit can reach.

Another assay addresses T2, RET (658-1114) (Homo sapiens, UniProt P07949).
T2 construct: 658-1114; expressed in transfected cells; host or cells: 293T.144 (293T cells, generated in-house)
T2 sequence (P07949 658-1114): T1 sequence (P07949 658-1114 G810R) with R153G
Briefly: HiBiT-Degradation, RET wild-type degradation assay (Nano-Glo HiBiT Lytic), 293T.144 cells. The format is cell-based. The settings on record: HiBiT-Degradation; for DC50 / Emax: 6.0 hours; for DC50: read-out: 293T.144 RET (658-1114) 6.0 hours (DC50); for Emax: read-out: 293T.144 RET (658-1114) 6.0 hours (Emax). In short, it runs like this:
as §1

Where [1] appears, read: half-maximal degradation concentration.

For orientation: Emax means the greatest response seen or fitted, relative to the assay's reference. The term DC50 denotes the midpoint of the concentration-degradation curve.

`N#Cc1cnn2cc(-c3ccc(N4CCN(C(=O)CN5CCC(c6ccc(NC7CCC(=O)NC7=O)cc6F)CC5)CC4)cc3)nc(-c3ccc(N4CC5CC(C4)N5Cc4ccccc4)nc3)c12` (stereo not shown) [Compound 54, 4-[6-(6-benzyl-3,6-diazabicyclo[3.1.1]heptan-3-yl)-3-pyridyl]-6-[4-[4-[2-[4-[4-[(2,6-dioxo-3-piperidyl)amino]-2-fluoro-phenyl]-1-piperidyl]acetyl]piperazin-1-yl]phenyl]pyrazolo[1,5-a]pyrazine-3-carbonitrile]: the Emax on RET(KD: 658-1114 G810R) was less than 30%. Moreover, the half-maximal degradation concentration (DC50) at RET(KD: 658-1114 G810R) (setting [1]) is less than 100 nM. Moreover, at RET(KD: 658-1114 G810R) (HiBiT-Degradation), the “293T.165 RET(KD: 658-1114 G810R) 6.0 hours (Emax)” value is “++++ (< 30% = ++++)”, the “293T.165 RET(KD: 658-1114 G810R) 6.0 hours (IP) [nM]” value is “++++ (< 50 nM = ++++)” and the half-maximal degradation concentration (DC50) is less than 100 nM. In addition, at RET (658-1114), the “293T.144 RET (658-1114) 6.0 hours (IP) [nM]” value (“293T.144 RET” below) is given as “++++ (< 50 nM = ++++)”, the DC50 was less than 50 nM and the maximal effect (Emax) is less than 30%.

As to `CCC1(NC(=O)C(C)C)CCN(c2ccc(-c3cc(-c4cnn(C5CCN(C(=O)CN6CCC(c7ccc(NC8CCC(=O)NC8=O)cc7F)CC6)CC5)c4)cn4ncc(C#N)c34)cn2)CC1` (stereo not shown) [Compound 55, N-[1-[5-[3-cyano-6-[1-[1-[2-[4-[4-[(2,6-dioxo-3-piperidyl)amino]-2-fluoro-phenyl]-1-piperidyl]acetyl]-4-piperidyl]pyrazol-4-yl]pyrazolo[1,5-a]pyridin-4-yl]-2-pyridyl]-4-ethyl-4-piperidyl]-2-methyl-propanamide], at RET(KD: 658-1114 G810R), the Emax is less than 50%. The half-maximal degradation concentration (DC50) on RET(KD: 658-1114 G810R) (setting [1]) is less than 50 nM. Moreover, on RET(KD: 658-1114 G810R) (HiBiT-Degradation), the “293T.165 RET(KD: 658-1114 G810R) 6.0 hours (Emax)” value is recorded as “+++ (<50% = +++)”, the “293T.165 RET(KD: 658-1114 G810R) 6.0 hours (IP) [nM]” value is recorded as “++++ (< 50 nM = ++++)” and the half-maximal degradation concentration (DC50) is less than 50 nM. On RET (658-1114), the “293T.144 RET” value was “++++ (< 50 nM = ++++)”, the half-maximal degradation concentration (DC50) was less than 50 nM and the Emax was less than 30%.

For the molecule `CC(C)NC(=O)C1(C(C)C)CCN(c2ccc(-c3cc(-c4cnn(C5CCN(C(=O)CN6CCC(c7ccc(NC8CCC(=O)NC8=O)cc7F)CC6)CC5)c4)cn4ncc(C#N)c34)cn2)CC1` (stereo not shown) [Compound 56, 1-[5-[3-cyano-6-[1-[1-[2-[4-[4-[(2,6-dioxo-3-piperidyl)amino]-2-fluoro-phenyl]-1-piperidyl]acetyl]-4-piperidyl]pyrazol-4-yl]pyrazolo[1,5-a]pyridin-4-yl]-2-pyridyl]-N,4-diisopropyl-piperidine-4-carboxamide], on RET(KD: 658-1114 G810R), the maximal effect (Emax) was less than 50%. The half-maximal degradation concentration (DC50) on RET(KD: 658-1114 G810R) (setting [1]) was less than 100 nM. At RET(KD: 658-1114 G810R) (HiBiT-Degradation), the “293T.165 RET(KD: 658-1114 G810R) 6.0 hours (Emax)” value is given as “+++ (<50% = +++)”, the “293T.165 RET(KD: 658-1114 G810R) 6.0 hours (IP) [nM]” value is “++++ (< 50 nM = ++++)” and the 50% degradation concentration (DC50) is less than 100 nM. On RET (658-1114), the “293T.144 RET” value is “++++ (< 50 nM = ++++)”, the DC50 was less than 50 nM and the Emax is less than 30%.

Turning to `N#Cc1cnn2cc(-c3cnn([C@H]4CC[C@H](CCN5CCC(c6ccc(NC7CCC(=O)NC7=O)cc6F)CC5)CC4)c3)cc(-c3ccc(N4CCN(C(=O)Cc5ccc(F)cn5)CC4)nc3)c12` (stereo partly shown) [Compound 57, 6-[1-[(1r,4r)-4-[2-[4-[4-[(2,6-dioxo-3-piperidyl)amino]-2-fluoro-phenyl]-1-piperidyl]ethyl]cyclohexyl]pyrazol-4-yl]-4-[6-[4-[2-(5-fluoro-2-pyridyl)acetyl]piperazin-1-yl]-3-pyridyl]pyrazolo[1,5-a]pyridine-3-carbonitrile], on RET(KD: 658-1114 G810R), the maximum response (Emax) is less than 30%. Moreover, on RET(KD: 658-1114 G810R) (setting [1]), the DC50 is less than 50 nM. Further, at RET(KD: 658-1114 G810R) (HiBiT-Degradation), the “293T.165 RET(KD: 658-1114 G810R) 6.0 hours (Emax)” value was “++++ (< 30% = ++++)”, the “293T.165 RET(KD: 658-1114 G810R) 6.0 hours (IP) [nM]” value is “++++ (< 50 nM = ++++)” and the DC50 is less than 50 nM. On RET (658-1114), the “293T.144 RET” value is “++++ (< 50 nM = ++++)”, the 50% degradation concentration (DC50) was less than 50 nM and the maximal response (Emax) was less than 30%.

`CCC1(C(=O)NC(C)C)CCN(c2ccc(-c3cc(-c4cnn(C5CCN(C(=O)CN6CCC(c7ccc(NC8CCC(=O)NC8=O)cc7F)CC6)CC5)c4)cn4ncc(C#N)c34)cc2)CC1` (stereo not shown) [Compound 58, 1-[4-[3-cyano-6-[1-[1-[2-[4-[4-[(2,6-dioxo-3-piperidyl)amino]-2-fluoro-phenyl]-1-piperidyl]acetyl]-4-piperidyl]pyrazol-4-yl]pyrazolo[1,5-a]pyridin-4-yl]phenyl]-4-ethyl-N-isopropyl-piperidine-4-carboxamide]: the Emax on RET(KD: 658-1114 G810R) is less than 50%. For the same molecule, the half-maximal degradation concentration (DC50) at RET(KD: 658-1114 G810R) (setting [1]) is less than 50 nM. On RET(KD: 658-1114 G810R) (HiBiT-Degradation), the “293T.165 RET(KD: 658-1114 G810R) 6.0 hours (Emax)” value was “+++ (<50% = +++)”, the “293T.165 RET(KD: 658-1114 G810R) 6.0 hours (IP) [nM]” value was “++++ (< 50 nM = ++++)” and the DC50 was less than 50 nM. Also, on RET (658-1114), the “293T.144 RET” value is given as “++++ (< 50 nM = ++++)”, the 50% degradation concentration (DC50) was less than 50 nM and the maximum response (Emax) is less than 30%.

`CCC1(C(=O)NC(C)C)CCN(c2ncc(-c3cc(-c4cnn(C5CCN(C(=O)CN6CCC(c7ccc(NC8CCC(=O)NC8=O)cc7F)CC6)CC5)c4)cn4ncc(C#N)c34)cn2)CC1` (stereo not shown) [Compound 59, 1-[5-[3-cyano-6-[1-[1-[2-[4-[4-[(2,6-dioxo-3-piperidyl)amino]-2-fluoro-phenyl]-1-piperidyl]acetyl]-4-piperidyl]pyrazol-4-yl]pyrazolo[1,5-a]pyridin-4-yl]pyrimidin-2-yl]-4-ethyl-N-isopropyl-piperidine-4-carboxamide]: on RET(KD: 658-1114 G810R), the Emax is less than 50%. The DC50 on RET(KD: 658-1114 G810R) (setting [1]) is less than 100 nM. For the same molecule, on RET(KD: 658-1114 G810R) (HiBiT-Degradation), the “293T.165 RET(KD: 658-1114 G810R) 6.0 hours (Emax)” value is on record as “+++ (<50% = +++)”, the “293T.165 RET(KD: 658-1114 G810R) 6.0 hours (IP) [nM]” value is “++++ (< 50 nM = ++++)” and the 50% degradation concentration (DC50) is less than 100 nM. At RET (658-1114), the “293T.144 RET” value was “++++ (< 50 nM = ++++)”, the DC50 is less than 50 nM and the Emax was less than 30%.

As to `N#Cc1cnn2cc(-c3cnn([C@H]4CC[C@H](CCN5CCC(c6ccc(NC7CCC(=O)NC7=O)cc6F)CC5)CC4)c3)nc(-c3ccc(N4CCN(C(=O)Cc5ccc(F)cn5)CC4)nc3)c12` (stereo partly shown) [Compound 60, 6-[1-[(1r,4r)-4-[2-[4-[4-[(2,6-dioxo-3-piperidyl)amino]-2-fluoro-phenyl]-1-piperidyl]ethyl]cyclohexyl]pyrazol-4-yl]-4-[6-[4-[2-(5-fluoro-2-pyridyl)acetyl]piperazin-1-yl]-3-pyridyl]pyrazolo[1,5-a]pyrazine-3-carbonitrile], on RET(KD: 658-1114 G810R), the Emax was less than 30%. In addition, the 50% degradation concentration (DC50) at RET(KD: 658-1114 G810R) (setting [1]) was less than 50 nM. For the same molecule, on RET(KD: 658-1114 G810R) (HiBiT-Degradation), the “293T.165 RET(KD: 658-1114 G810R) 6.0 hours (Emax)” value was “++++ (< 30% = ++++)”, the “293T.165 RET(KD: 658-1114 G810R) 6.0 hours (IP) [nM]” value is “++++ (< 50 nM = ++++)” and the half-maximal degradation concentration (DC50) was less than 50 nM. Further, at RET (658-1114), the “293T.144 RET” value is “++++ (< 50 nM = ++++)”, the half-maximal degradation concentration (DC50) was less than 50 nM and the maximum response (Emax) is less than 30%.

Consider `N#Cc1cnn2cc(-c3cnn(C4CCN(C(=O)CN5CCC(c6ccc(NC7CCC(=O)NC7=O)cc6F)CC5)CC4)c3)nc(-c3ccc(N4CCN(Cc5ccccn5)CC4)cc3)c12` (stereo not shown) [Compound 61, 6-[1-[1-[2-[4-[4-[(2,6-dioxo-3-piperidyl)amino]-2-fluoro-phenyl]-1-piperidyl]acetyl]-4-piperidyl]pyrazol-4-yl]-4-[4-[4-(2-pyridylmethyl)piperazin-1-yl]phenyl]pyrazolo[1,5-a]pyrazine-3-carbonitrile], for which the maximal effect (Emax) at RET(KD: 658-1114 G810R) was less than 50%. In addition, the DC50 at RET(KD: 658-1114 G810R) (setting [1]) is less than 100 nM. On RET(KD: 658-1114 G810R) (HiBiT-Degradation), the “293T.165 RET(KD: 658-1114 G810R) 6.0 hours (Emax)” value is “+++ (<50% = +++)”, the “293T.165 RET(KD: 658-1114 G810R) 6.0 hours (IP) [nM]” value is on record as “++++ (< 50 nM = ++++)” and the DC50 is less than 100 nM. In addition, at RET (658-1114), the “293T.144 RET” value was “++++ (< 50 nM = ++++)”, the DC50 was less than 50 nM and the Emax was less than 30%.
